These are literature values, as cited in US20110142971A1, “USE OF AN ONION EXTRACT FOR MAKING A COMPOSITION TO CONTROL WEIGHT GAIN” (priority 2005, published 2011).

For data set [1] the following is noted: in vivo.
The target in another data set is T1, pancreatic lipase (Homo sapiens, UniProt P16233).
T1 construct: host or cells: human subjects (in vivo, digestive tract)
T1 sequence (P16233 17-465): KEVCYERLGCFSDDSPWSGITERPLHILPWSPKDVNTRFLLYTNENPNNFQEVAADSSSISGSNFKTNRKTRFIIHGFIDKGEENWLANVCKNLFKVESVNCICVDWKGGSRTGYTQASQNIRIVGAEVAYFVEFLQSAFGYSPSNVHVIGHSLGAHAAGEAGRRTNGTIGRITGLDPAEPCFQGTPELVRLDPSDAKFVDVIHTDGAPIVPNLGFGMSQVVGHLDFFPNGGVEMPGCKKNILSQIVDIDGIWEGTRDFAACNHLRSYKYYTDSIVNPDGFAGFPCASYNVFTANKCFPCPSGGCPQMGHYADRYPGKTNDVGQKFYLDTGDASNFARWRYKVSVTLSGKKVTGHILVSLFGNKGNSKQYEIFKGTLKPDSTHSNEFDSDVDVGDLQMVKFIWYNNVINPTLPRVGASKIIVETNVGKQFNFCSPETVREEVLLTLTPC
As to conditions: human species.

As to `CCCCCCCCCCC[C@@H](C[C@@H]1OC(=O)[C@H]1CCCCCC)OC(=O)[C@H](CC(C)C)NC=O` [tetrahydrolipstatin, [2S-[2-α(R),3β]]-N-formyl-L-leucine 1-[(3-hexyl-4-oxo-2-oxetanyl)methyl]dodecyl ester], in data set [1], the Side effects entry is “steatorrhoea, anal exudation, abdominal pains, nausea and vomiting, or fat-soluble vitamin absorption reduction”. Also, on pancreatic lipase, the “Average reduction of the lipids contained in food” value was “about one third”.
